Measurements as given in patent publication US20240018119A1, “CARBOXAMIDE DERIVATIVE AND PHARMACEUTICAL COMPOSITION COMPRISING SAME AS ACTIVE INGREDIENT FOR PREVENTING OR TREATING MENTAL ILLNESS” (DAEGU-GYEONGBUK MEDICAL INNOVATION FOUNDATION, priority 2020, published 2024).

What was measured:
Assay type in all cases: cell-based
[1] = molecular target: T1, norepinephrine transporter (Homo sapiens, UniProt P23975); experiment: Norepinephrine reuptake inhibition in transporter-transfected HEK-293 cells ([3H]-NE); details: for Triple reuptake inhibition (Ratio %) NET: compound 1 μM, [3H]-NE, relative to control without compound (100%), lower = more inhibition; for IC50: concentration at which Ratio % is 50%, 6 concentrations 1 nM to 1 μM, read-out: Triple reuptake inhibition (IC50, μM) NET
T1 construct: expressed in transfected cells; host or cells: HEK-293
Experimental: (§1) To evaluate the reuptake inhibitory effect on dopamine, the dopamine transporter cDNA was transfected using the HEK-293 cell line, and then sub-seeded in a 24 well plate the next day. After removing the medium, each compound of the Examples or Comparative Examples diluted to 1 μM in uptake buffer was added to a concentration of 200 μl/well and cultured at 37° C. for 15 minutes. 100 μl of uptake buffer containing 20-30 nM [3H]-DA was added and cultured at 37° C. for 5 minutes. The reaction solution was quickly removed and washed three times with 1 ml ice-cold uptake buffer. After dissolving the resultant in 1% SDS (0.5 ml), the degree of binding of radioisotope-labeled dopamine to the transporter was measured.
(§2) For norepinephrine (NE) and serotonin (5-HT), the degree of binding of radioisotope-labeled norepinephrine or serotonin to the transporter was measured in the same manner as above, except that cells transfected with NE or 5-HT transporter cDNA were used and [3H]-NE or [3H]-5-HT was used as a substrate.
(§3) In addition, when evaluating the reuptake inhibitory effect on dopamine, norepinephrine, and serotonin, the same method was performed without treating each compound of the Examples or Comparative Examples as a control, the degree of binding of radioisotope-labeled dopamine, norepinephrine, and serotonin to the transporter was measured, and by using this as a standard (100%), the triple reuptake inhibitory effect was evaluated as a relative ratio (Ratio %). That is, in the control group, the binding of dopamine, norepinephrine, and serotonin to transporters is not inhibited, but when each compound of the Examples is treated and thus the binding is inhibited, the Patio % value decreases.
(§4) Meanwhile, the Patio % values were compared, and in the case of the compounds of Examples 6, 9, 10, 19, 20, 22, 24, 28, 30, 31, 32, 33, 35, 41, 42, 48, 49, 51, 55, 56, 59, 61, 63, 64, 65, 66, 74 and 76 with excellent reuptake inhibitory effects on dopamine, norepinephrine and serotonin, the concentration at which the Ratio % is 50% was calculated using a total of 6 concentrations (1 nM, 5 nM, 10 nM, 50 nM, 100 nM, and 1 μM) and expressed as IC50. In addition, in the case of the compound of Comparative Example 1, IC50 was obtained by the same method as the Example Compounds.

serotonin transporter = molecular target: T2, serotonin transporter (Homo sapiens, UniProt P31645); experiment: Serotonin reuptake inhibition in transporter-transfected HEK-293 cells ([3H]-5-HT); details: for Triple reuptake inhibition (Ratio %) SERT: compound 1 μM, [3H]-5-HT, relative to control without compound (100%), lower = more inhibition; for IC50: concentration at which Ratio % is 50%, 6 concentrations 1 nM to 1 μM, read-out: Triple reuptake inhibition (IC50, μM) SERT
T2 construct: expressed in transfected cells; host or cells: HEK-293
Experimental: as §1, §2, §3
In addition, in the case of the compound of Comparative Example 1, IC50 was obtained by the same method as the Example Compounds.

dopamine transporter = molecular target: T3, dopamine transporter (Homo sapiens, UniProt Q01959); experiment: Dopamine reuptake inhibition in transporter-transfected HEK-293 cells ([3H]-DA); details: for Triple reuptake inhibition (Ratio %) DAT: compound 1 μM, 20-30 nM [3H]-DA, relative to control without compound (100%), lower = more inhibition; for IC50: concentration at which Ratio % is 50%, 6 concentrations 1 nM to 1 μM, read-out: Triple reuptake inhibition (IC50, μM) DAT
T3 construct: expressed in transfected cells; host or cells: HEK-293
Experimental: as §1, §3, §4

T1 sequence (P23975 whole entry, species assumed): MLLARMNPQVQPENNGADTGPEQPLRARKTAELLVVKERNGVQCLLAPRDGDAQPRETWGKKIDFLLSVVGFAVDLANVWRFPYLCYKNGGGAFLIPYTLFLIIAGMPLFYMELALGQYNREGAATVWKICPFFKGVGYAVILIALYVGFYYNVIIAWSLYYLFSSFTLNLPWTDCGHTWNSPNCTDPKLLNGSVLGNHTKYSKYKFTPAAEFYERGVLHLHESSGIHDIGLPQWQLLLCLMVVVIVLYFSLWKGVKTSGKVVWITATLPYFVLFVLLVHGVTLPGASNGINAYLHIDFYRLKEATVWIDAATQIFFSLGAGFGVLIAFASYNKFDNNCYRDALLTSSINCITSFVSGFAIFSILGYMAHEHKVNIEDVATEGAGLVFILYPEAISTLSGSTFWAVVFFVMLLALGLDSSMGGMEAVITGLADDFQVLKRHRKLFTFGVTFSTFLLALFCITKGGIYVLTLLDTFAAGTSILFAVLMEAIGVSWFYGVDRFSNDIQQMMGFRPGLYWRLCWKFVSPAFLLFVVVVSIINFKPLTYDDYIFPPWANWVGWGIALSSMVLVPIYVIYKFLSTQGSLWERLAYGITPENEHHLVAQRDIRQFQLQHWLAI
T2 sequence (P31645 whole entry): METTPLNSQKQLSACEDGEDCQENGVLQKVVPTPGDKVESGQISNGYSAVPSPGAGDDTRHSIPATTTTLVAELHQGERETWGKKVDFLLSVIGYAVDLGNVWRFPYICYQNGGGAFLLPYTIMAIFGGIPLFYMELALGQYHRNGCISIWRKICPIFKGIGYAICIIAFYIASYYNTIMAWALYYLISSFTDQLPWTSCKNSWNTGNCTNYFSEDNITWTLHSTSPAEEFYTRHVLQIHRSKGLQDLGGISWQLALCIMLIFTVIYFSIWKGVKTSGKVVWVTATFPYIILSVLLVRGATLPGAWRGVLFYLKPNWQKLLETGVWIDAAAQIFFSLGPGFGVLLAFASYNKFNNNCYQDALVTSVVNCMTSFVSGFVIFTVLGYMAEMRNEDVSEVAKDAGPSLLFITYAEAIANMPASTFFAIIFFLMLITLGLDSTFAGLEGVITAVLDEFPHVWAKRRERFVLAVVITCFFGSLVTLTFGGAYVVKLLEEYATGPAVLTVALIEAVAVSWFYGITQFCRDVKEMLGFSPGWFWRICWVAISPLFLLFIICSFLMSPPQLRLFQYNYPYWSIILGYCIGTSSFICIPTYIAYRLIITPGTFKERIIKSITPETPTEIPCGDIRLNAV
T3 sequence (Q01959 whole entry): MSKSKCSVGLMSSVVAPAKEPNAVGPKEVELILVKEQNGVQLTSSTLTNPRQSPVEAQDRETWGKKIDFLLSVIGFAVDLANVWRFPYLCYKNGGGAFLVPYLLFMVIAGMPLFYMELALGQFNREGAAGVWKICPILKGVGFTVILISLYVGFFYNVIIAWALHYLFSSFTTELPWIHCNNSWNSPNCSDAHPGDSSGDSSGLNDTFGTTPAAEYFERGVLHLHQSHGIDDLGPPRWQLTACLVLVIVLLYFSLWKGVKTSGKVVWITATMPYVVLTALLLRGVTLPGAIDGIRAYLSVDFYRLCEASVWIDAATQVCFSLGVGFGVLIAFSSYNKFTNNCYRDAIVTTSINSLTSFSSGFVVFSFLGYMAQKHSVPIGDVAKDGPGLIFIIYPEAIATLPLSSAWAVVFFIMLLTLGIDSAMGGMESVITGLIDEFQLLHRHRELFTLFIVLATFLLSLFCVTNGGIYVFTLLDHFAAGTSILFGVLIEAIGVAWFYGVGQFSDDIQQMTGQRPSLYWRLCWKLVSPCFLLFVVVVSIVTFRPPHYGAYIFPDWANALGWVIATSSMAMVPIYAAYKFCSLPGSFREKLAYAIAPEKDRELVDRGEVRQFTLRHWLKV

| SMILES | Triple reuptake inhibition (Ratio %) NET [1] [%] | Triple reuptake inhibition (Ratio %) SERT (serotonin transporter) [%] | Triple reuptake inhibition (Ratio %) DAT (dopamine transporter) [%] | IC50 (dopamine transporter) [µM] | IC50 [1] [µM] | IC50 (serotonin transporter) [µM] |
| --- | --- | --- | --- | --- | --- | --- |
| O=C(NCCN1CCN(Cc2ccccc2)CC1)c1cc2ccccc2[nH]1 [Example 25, N-(2-(4-benzylpiperazin-1-yl)ethyl)-1H-indol-2-carboxamide] | 76.45 | 97.46 | 76.50 |  |  |  |
| O=C(c1cc2ccccc2[nH]1)N1CCC(Cc2ccccc2)CC1 [Example 26, (4-benzylpiperidin-1-yl) (1H-indol-2-yl)methanone] | 92.07 | 113.81 | 124.32 |  |  |  |
| O=C(NCCN1CCC(Cc2ccc(F)c(F)c2)CC1)c1cc2ccccc2[nH]1 [Example 27, N-(2-(4-(3,4-difluorobenzyl)piperidin-1-yl)ethyl)-1H-indol-2-carboxamide] | 69.72 | 75.39 | 71.77 |  |  |  |
| O=C(NCCN1CCC(c2ccc(Cl)c(Cl)c2)CC1)c1cc2ccccc2[nH]1 [Example 28, N-(2-(4-(3,4-dichlorophenyl)piperidin-1-yl)ethyl)-1H-indol-2-carb oxamide] | 88.77 | 82.81 | 37.16 | 0.225 |  |  |
| O=C(NCCN1CCN(CC2CCOCC2)CC1)c1cc2ccccc2[nH]1 [Example 29, N-(2-(4-((tetrahydro-2H-pyran-4-yl)methyl)piperazin-1-yl)ethyl)-1H-indol-2-carboxamide] | 97.94 | 94.24 | 113.83 |  |  |  |
| O=C(NCCN1CCC(Cc2ccccc2)CC1)c1cc2cc(Br)ccc2[nH]1 [Example 30, N-(2-(4-benzylpiperidin-1-yl)ethyl)-5-bromo-1H-indol-2-carboxamide] | 94.09 | 75.29 | 49.44 | 0.984 | 7.91 |  |
| O=C(NCCN1CCC(Cc2ccccc2)CC1)c1cc2cc(Cl)ccc2[nH]1 [Example 31, N-(2-(4-benzylpiperidin-1-yl)ethyl)-5-chloro-1H-indol-2-carboxamide] | 72.60 | 58.09 | 31.52 | 1.73 | 4.35 |  |
| O=C(NCCN1CCC(Cc2ccccc2)CC1)c1cc2cc(F)c(F)cc2[nH]1 [Example 32, N-(2-(4-benzylpiperidin-1-yl)ethyl)-5,6-difluoro-1H-indol-2-carboxamide] | 66.78 | 54.81 | 28.03 | 0.824 | 1.47 | 2.04 |
| COc1ccc2[nH]c(C(=O)NCCN3CCC(Cc4ccccc4)CC3)cc2c1 [Example 33, N-(2-(4-benzylpiperidin-1-yl)ethyl)-5-methoxy-1H-indol-2-carboxamide] | 65.51 | 48.73 | 25.55 | 0.331 | 1.7 | 1.33 |
| CC(C)(CN1CCC(Cc2ccccc2)CC1)NC(=O)c1cc2ccccc2[nH]1 [Example 34, N-(1-(4-benzylpiperidin-1-yl)-2-methylpropan-2-yl)-1H-indol-2-carboxamide] | 70.66 | 90.64 | 55.54 |  |  |  |
| O=C(NCCN1CCC(C(O)c2ccccc2)CC1)c1cc2ccccc2[nH]1 (centres unmarked) [Example 36, N-(2-(4-(hydroxy(phenyl)methyl)piperidin-1-yl)ethyl)-1H-indol-2-carboxamide] | 90.99 | 111.92 | 84.74 |  |  |  |
| O=C(NCCN1CCC(c2c[nH]c3ccccc23)CC1)c1cc2ccccc2[nH]1 [Example 37, N-(2-(4-(1H-indol-3-yl)piperidin-1-yl)ethyl)-1H-indol-2-carboxamide] | 76.15 | 32.42 | 38.64 |  |  |  |
| O=C(NCCN1CCCC(Cc2ccccc2)C1)c1cc2ccccc2[nH]1 (centres unmarked) [Example 38, N-(2-(3-benzylpiperidin-1-yl)ethyl)-1H-indol-2-carboxamide] | 70.02 | 70.46 | 43.94 |  |  |  |
| O=C(NCCN1CCC(Cc2ccccc2)CC1)c1cc2c(Cl)cc(Cl)cc2[nH]1 [Example 39, N-(2-(4-benzylpiperidin-1-yl)ethyl)-4,6-dichloro-1H-indol-2-carboxamide] | 63.99 | 76.27 | 40.9 |  |  |  |
| O=C(NCCN1CCC(Cc2ccccc2)CC1)c1cc2cc(C(F)(F)F)ccc2[nH]1 [Example 40, N-(2-(4-benzylpiperidin-1-yl)ethyl)-5-(trifluoromethyl)-1H-indol-2-carboxamide] | 59.50 | 92.65 | 35.13 |  |  |  |
| N#Cc1ccc2[nH]c(C(=O)NCCN3CCC(Cc4ccccc4)CC3)cc2c1 [Example 41, N-(2-(4-benzylpiperidin-1-yl)ethyl)-5-cyano-1H-indol-2-carboxamide] | 31.85 | 48.50 | 12.3 | 0.171 | 0.371 | 0.525 |
| CCCCOc1ccc2cc(C(=O)NCCN3CCC(Cc4ccccc4)CC3)[nH]c2c1 [Example 42, N-(2-(4-benzylpiperidin-1-yl)ethyl)-6-butoxy-1H-indol-2-carboxamide] | 44.53 | 46.64 | 45.67 | 0.338 | 0.171 | 0.68 |
| CC(CN1CCC(Cc2ccccc2)CC1)NC(=O)c1cc2ccccc2[nH]1 (centres unmarked) [Example 43, N-(1-(4-benzylpiperidin-1-yl)propan-2-yl)-1H-indol-2-carboxamide] | 56.98 | 81.76 | 30.29 |  |  |  |
| O=C(NC1CCC(Cc2ccccc2)CC1)c1cc2ccccc2[nH]1 (centres unmarked) [Example 44, N-(4-benzylcyclohexyl)-1H-indol-2-carboxamide] | 85.48 | 94.19 | 73.05 |  |  |  |
| O=C(NCCNC(=O)c1cc2ccccc2[nH]1)c1ccc2ccccc2c1 [Example 45, N-(2-(2-naphthamido)ethyl)-1H-indol-2-carboxamide] | 102.98 | 91.05 | 110.91 |  |  |  |
| O=C(NCCN1CCC(Cc2ccccc2)CC1)c1cc2cc(OCc3ccccc3)ccc2[nH]1 [Example 46, 5-(benzyloxy)-N-(2-(4-benzylpiperidin-1-yl)ethyl)-1H-indol-2-carboxamide] | 110.55 | 42.91 | 77.49 |  |  |  |
| O=C(NCCN1CCC(Cc2ccccc2)CC1)c1cc2cc(Cl)c(Cl)cc2[nH]1 [Example 47, N-(2-(4-benzylpiperidin-1-yl)ethyl)-5,6-dichloro-1H-indol-2-carboxamide] | 94.59 | 75.98 | 41.80 |  |  |  |
| COc1cc2cc(C(=O)NCCN3CCC(Cc4ccc(Cl)c(Cl)c4)CC3)[nH]c2cc1OC [Example 48] | 9.75 | 5.27 | 2.88 | 0.028 | 0.398 | 0.123 |
